# From patent US20060258735A1, “1,3-Bis-(substituted-phenyl)-2-propen-1-ones and their use to treat VCAM-1 mediated disorders” (priority 2000, published 2006)
# What was measured:
# paw edema = assay: Paw edema model (delayed type hypersensitivity, metBSA); format: in vivo; conditions: 50 mg/kg/dose intraperitoneal at -24, -2 and +6 hrs around metBSA challenge; Balb/C mice; 24 hours after challenge; FIG. 3
# Description: Balb/C mice (n=5) were sensitized intradermally on day 0 with methylated BSA (metBSA). They were then challenged with metBSA on day 7 in the right hind paw. The animals were sacrificed 24 hours later and the left and right hind paws weighed. The left hindpaw weight is subtracted from the right hind paw to give the paw weight increase. The test compound was administered by intraperitoneal injection −24, −2 and +6 hrs around the time of metBSA challenge.
# eosinophil recruitment = assay: Mouse peritonitis model (ovalbumin, eosinophil recruitment); format: in vivo; conditions: 50 mg/kg/dose subcutaneous at -24, -2, +2 and +6 hrs around ovalbumin challenge; Balb/C mice; 48 hrs post-challenge; FIG. 2
# Description: (§1) Balb/C mice (n=10) were sensitized to ovalbumin on days 0 and 7 with a subcutaneous injection of ovalbumin absorbed in aluminum hydroxide. They were then challenged with an intraperitoneal injection of ovalbumin and sacrificed 48 hrs post-challenge. Peritoneal fluid was then collected and spun down onto slides. Slides were stained with DiffQuik and a differential performed. The test compound was administered by subcutaneously injection −24, −2, +2 and +6 hrs around the time of ovalbumin challenge. This is a model of allergic inflammation as eosinophils are the major leukocyte recruited into the peritoneum.
# as §1, with “compound wase” for “compound was”
structure (smiles),measurement,setting,value
"COc1cc(OC)c(-c2cc3ccccc3s2)cc1/C=C/C(=O)c1cc(OC)c(OC)c(OC)c1 [3-[5-(benzo[b]thien-2-yl)-2,4-dimethoxyphenyl]-1-(3,4,5-trimethoxyphenyl)-2-propen-1-one]",inhibition of paw edema (paw weight increase),paw edema,inhibition of paw edema
same,inhibition of eosinophil recruitment (percent eosinophils in the peritoneal fluid),eosinophil recruitment,inhibition of eosinophil recruitment
